In brackets after ≈: the same amount, converted by molar mass.
How the values were obtained:
Format in all cases: cell-based
[1] = system: human peripheral blood lymphocyte (PBL); assay: cells
[2] = system: human transformed T cell line, H9; assay: H9 proliferation Assay; settings: 3 days culture, 3H-thymidine pulse on day 3, harvest 16 hours later
Method: The human transformed T cell line, H9 (ATCC Rockville, Md.), was cultured at 3000/well in RPMI 1640 medium supplemented with 5 % human AB serum, glutamine (2 mM), penicillin/streptomycin (50 U/ml, 50 micrograms/ml), sodium pyruvate (1 mM), HEPES (10 mM), and non-essential amino acids (1X) in a total of 200 microliter/well in a 96 well plate. The H9 cells were cultured with and without various dilutions of test compound for 3 days.
The cells were pulsed on day 3 with 1 microCurie/well of ^3 H-thymidine using a standard procedure known in the art. The cells were then harvested 16 hours later onto glass fiber filters using a TOMTEC cell harvester. Cellular proliferation was assessed by thymidine incorporation and measured by liquid scintillation counting using a Beta plate counter (Pharmacia, Inc., Piscataway, N.J.). The IC 50 represents the amount of compound necessary to inhibit 50% of the thymidine incorporation.

PBLs = assay: Mixed Lymphocyte Reactions (MLR) Assay; settings: Homo sapiens, 3H-thymidine pulse on day 5, harvest 16 hours later
Method: Mixed Lymphocyte Reactions (MLR) Assay
Blood samples were drawn from two donors and the lymphocytes were separated out by Ficoll gradient by standard procedures known in the art. The isolated lymphocytes from done 1 were left untreated and the cells from donor 2 where suspended in Hanks Balanced Salt Solution at 10^7 /ml and treated with 50 micrograms/ml mitomycin C for 30 minutes at 37° C.
The PBLs were cultured in RPMI 1640 medium containing 5% human AB serum, glutamine (2 mM), penicillin/streptomycin (50 micrograms/ml / 50 micrograms/ml), sodium pyruvate (1 mM) and HEPES buffer (10 mM). For assay purposes, 10^5 PBLs from each donor were added to each well of a 96-well plate in a total volume of 200 microliters along with various dilutions of test compound.
The cultures were pulsed with 1 microCurie ^3 H-thymidine on day 5 and harvested 16 hours later onto a glass fiber filter. Thymidine incorporation was measured by liquid scintillation counting using a Beta plate counter. The IC50 represents the amount of compound necessary to inhibit 50 % of the thymidine incorporation.

SMILES	IC50 [1]	other results
COc1cc(-c2ccc(Nc3ccccc3C(=O)O)c(OC)c2)ccc1N [PRO3249]	0.005 µg/mL (≈ 0.0137 µM)	–
COc1cc(-c2ccc(Nc3ccccc3C(=O)O)c(OC)c2)ccc1NC(=O)OC(C)(C)C [PRO4323]	0.015 µg/mL (≈ 0.0323 µM)	–
COc1cc(-c2ccc(Nc3ccccc3C(=O)O)c(OC)c2)ccc1NC(C)=O [PRO4379]	0.133 µg/mL (≈ 0.327 µM)	–
COc1cc(-c2ccc(Nc3ccccc3C(=O)O)c(OC)c2)ccc1Br [PRO4402]	0.03 µg/mL (≈ 0.07 µM)	–
COc1cccc(-c2ccc(Nc3ccccc3C(=O)O)c(OC)c2)c1 [PRO4403]	0.012 µg/mL (≈ 0.0343 µM)	–
COc1cc(-c2ccc([N+](=O)[O-])c(OC)c2)ccc1Nc1ccccc1C(=O)O [PRO4636]	–	IC50 [2]: 3.2 µg/mL (≈ 8.11 µM)
Nc1ccc(-c2ccc(Nc3ccccc3C(=O)O)cc2)cc1 [PRO4707]	0.086 µg/mL (≈ 0.283 µM)	–
Nc1ccc(C(=O)c2ccc(Nc3ccccc3C(=O)O)cc2)cc1 [PRO4708]	0.345 µg/mL (≈ 1.04 µM)	–
O=C(O)c1ccccc1Nc1ccc(-c2ccccc2)cc1 [PRO4917]	0.296 µg/mL (≈ 1.02 µM)	–
Nc1cccc(C(=O)c2cccc(Nc3ccccc3C(=O)O)c2)c1 [PRO4919]	–	IC50 (PBLs): 5 µg/mL (≈ 15 µM)
COC(=O)c1ccccc1Nc1ccc(-c2ccc(N)c(OC)c2)cc1OC [PRO5021]	0.037 µg/mL (≈ 0.0978 µM)	–
CC(=O)Nc1ccc(-c2ccc(Nc3ccccc3C(=O)O)cc2)cc1 [PRO5023]	> 1 µg/mL	–
COc1cc(-c2ccc(Nc3ccccc3-c3nn[nH]n3)c(OC)c2)ccc1N [PRO5105]	> 1 µg/mL	–
COc1cc(-c2ccc([N+](=O)[O-])c(OC)c2)ccc1Nc1ccccc1-c1nn[nH]n1 [PRO5106]	> 1 µg/mL	–
COc1cc(-c2ccc(N(C)C)c(OC)c2)ccc1Nc1ccccc1C(=O)O [PRO6365]	0.194 µg/mL (≈ 0.494 µM)	–
CNc1ccc(-c2ccc(Nc3ccccc3C(=O)O)c(OC)c2)cc1OC [PRO6370]	0.01 µg/mL (≈ 0.0264 µM)	–

Reference: patent US5739169A, “Aromatic compounds for inhibiting immune response” (Procept, Incorporated, priority 1996, dated 1998)
